Where two headings read alike, the source gives them in different places.
System: bovine cartilage biopsies
Details: IL-1β and OSM 10 ng/mL, 21 days, FIG. 3
Protocol: For this purpose, cartilage biopsies were collected from the patello-femoral sulcus and femoral condyles from the femur of 1 adult bovine (15-18 months). […] The biopsies (Ø=3 mm) were taken with a steel punch.
Each biopsy was transferred to a well of a 48-well MW and washed twice with 500 μL PBS 1× (Euroclone, cat. no. ECB4004L, Italy). […] The biopsies were incubated for 24 h at 37° C. 5% CO2. After incubation, the biopsies were washed with 500 μL PBS 1×, and 500 μL DMEM/F-12+2% FBS containing the dilution of the compound to be tested were added to all the wells. Each statin was used at the concentrations of 10 μM and 2.5 μM. 4 biopsies were used for each condition. After 7, 14 and 21 days, the biopsy culture medium was aspirated and replaced with 500 μL of fresh culture medium containing the appropriate concentrations of pro-inflammatory cytokines (IL-1β and OSM, 10 ng/mL) and the active ingredients to be tested. The biopsy culture medium was harvested after 21 days and used to determine the soluble collagen content. The Sircol assay was conducted according to the manufacturer's instructions, and quantitation was effected by spectrophotometric reading at 555 nm.

Compound	collagen release induced by IL-1β and OSM (statin 2.5 μM)	collagen release induced by IL-1β and OSM (statin 10 μM)
CC(C)c1c(C(=O)Nc2ccccc2)c(-c2ccccc2)c(-c2ccc(F)cc2)n1CC[C@@H](O)C[C@@H](O)CC(=O)O [atorvastatin]	significant reduction in collagen release	significant reduction in collagen release
CC[C@H](C)C(=O)O[C@H]1C[C@@H](C)C=C2C=C[C@H](C)[C@H](CC[C@@H]3C[C@@H](O)CC(=O)O3)[C@H]21 [lovastatin]	values comparable to those of the untreated control	significant reduction in collagen release
